Test [1] has as its target T1, AXL (Homo sapiens, UniProt P30530).
T1 construct: endogenous in cells; host or cells: A-172 glioblastoma cells (ATCC #CRL-1620)
T1 sequence (P30530 26-894): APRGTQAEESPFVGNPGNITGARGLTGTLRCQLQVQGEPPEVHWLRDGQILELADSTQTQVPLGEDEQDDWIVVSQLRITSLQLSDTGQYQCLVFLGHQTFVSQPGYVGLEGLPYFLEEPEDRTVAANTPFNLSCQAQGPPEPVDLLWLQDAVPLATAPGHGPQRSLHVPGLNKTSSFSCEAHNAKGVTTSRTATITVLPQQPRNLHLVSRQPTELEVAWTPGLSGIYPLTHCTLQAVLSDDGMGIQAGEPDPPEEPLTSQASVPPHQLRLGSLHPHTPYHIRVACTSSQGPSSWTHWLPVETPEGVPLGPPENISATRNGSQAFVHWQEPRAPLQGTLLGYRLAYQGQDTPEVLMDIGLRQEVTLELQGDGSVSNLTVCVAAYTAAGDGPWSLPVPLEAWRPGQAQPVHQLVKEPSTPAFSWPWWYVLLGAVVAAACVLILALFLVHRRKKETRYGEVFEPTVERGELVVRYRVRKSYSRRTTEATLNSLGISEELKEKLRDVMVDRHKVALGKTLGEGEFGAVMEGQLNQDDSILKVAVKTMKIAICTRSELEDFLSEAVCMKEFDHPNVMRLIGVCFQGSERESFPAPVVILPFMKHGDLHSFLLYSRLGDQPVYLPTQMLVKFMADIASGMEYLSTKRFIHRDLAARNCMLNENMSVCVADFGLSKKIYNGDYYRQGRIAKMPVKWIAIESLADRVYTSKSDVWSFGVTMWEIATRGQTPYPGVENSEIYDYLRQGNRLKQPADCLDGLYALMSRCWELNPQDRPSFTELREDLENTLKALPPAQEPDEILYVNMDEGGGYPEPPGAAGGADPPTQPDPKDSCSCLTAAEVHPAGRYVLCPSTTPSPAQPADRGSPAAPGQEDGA
Nature of the test: AXL autophosphorylation ELISA in A-172 cells. It is filed as cell-based. To be noted: Table 3 Cellular Activities, Gas6-stimulated, phospho-AXL ELISA. The procedure, abridged:
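Phospho-AXL in lysates measured by ELISA after Gas6 stimulation (1 μg/mL, 15 min) of A-172 cells pre-incubated 1 h with an 8-point compound dilution series in 0.3% DMSO after 24 h serum starvation. IC50 by 4-parameter logistic fit, with DMSO-treated and reference-inhibitor wells as 100% and 0% activity.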

Test [2] addresses Met (Homo sapiens, UniProt P08581). The experiment in a line: Met autophosphorylation ELISA in PC-3 cells. Format: cell-based. On the set-up: endogenous in cells; host or cells: PC-3 prostate cancer cells (ATCC #CRL-1435). The note with it: Table 3 Cellular Activities, HGF-stimulated, phospho-Met ELISA, read-out: c-Met IC50. The procedure, abridged:
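IC50 derived by 4-parameter logistic regression of phospho-Met (panTyr) sandwich ELISA signal, scaled between HGF-stimulated DMSO and reference-inhibitor lysates. PC-3 cells, serum-starved 3 h, received an 8-point compound series (0.3% DMSO) for 1 h before 10 min stimulation with 100 ng/mL human HGF.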
(In general: ELISA stands for enzyme-linked immunosorbent assay.)

5 molecules from patent US20230151003A1, “COMPOUNDS AND METHODS OF USE” (Exelixis, Inc., priority 2020, published 2023) can be followed below.

Molecules are shown by their SMILES.

Sequence of Met (P08581 25-1390): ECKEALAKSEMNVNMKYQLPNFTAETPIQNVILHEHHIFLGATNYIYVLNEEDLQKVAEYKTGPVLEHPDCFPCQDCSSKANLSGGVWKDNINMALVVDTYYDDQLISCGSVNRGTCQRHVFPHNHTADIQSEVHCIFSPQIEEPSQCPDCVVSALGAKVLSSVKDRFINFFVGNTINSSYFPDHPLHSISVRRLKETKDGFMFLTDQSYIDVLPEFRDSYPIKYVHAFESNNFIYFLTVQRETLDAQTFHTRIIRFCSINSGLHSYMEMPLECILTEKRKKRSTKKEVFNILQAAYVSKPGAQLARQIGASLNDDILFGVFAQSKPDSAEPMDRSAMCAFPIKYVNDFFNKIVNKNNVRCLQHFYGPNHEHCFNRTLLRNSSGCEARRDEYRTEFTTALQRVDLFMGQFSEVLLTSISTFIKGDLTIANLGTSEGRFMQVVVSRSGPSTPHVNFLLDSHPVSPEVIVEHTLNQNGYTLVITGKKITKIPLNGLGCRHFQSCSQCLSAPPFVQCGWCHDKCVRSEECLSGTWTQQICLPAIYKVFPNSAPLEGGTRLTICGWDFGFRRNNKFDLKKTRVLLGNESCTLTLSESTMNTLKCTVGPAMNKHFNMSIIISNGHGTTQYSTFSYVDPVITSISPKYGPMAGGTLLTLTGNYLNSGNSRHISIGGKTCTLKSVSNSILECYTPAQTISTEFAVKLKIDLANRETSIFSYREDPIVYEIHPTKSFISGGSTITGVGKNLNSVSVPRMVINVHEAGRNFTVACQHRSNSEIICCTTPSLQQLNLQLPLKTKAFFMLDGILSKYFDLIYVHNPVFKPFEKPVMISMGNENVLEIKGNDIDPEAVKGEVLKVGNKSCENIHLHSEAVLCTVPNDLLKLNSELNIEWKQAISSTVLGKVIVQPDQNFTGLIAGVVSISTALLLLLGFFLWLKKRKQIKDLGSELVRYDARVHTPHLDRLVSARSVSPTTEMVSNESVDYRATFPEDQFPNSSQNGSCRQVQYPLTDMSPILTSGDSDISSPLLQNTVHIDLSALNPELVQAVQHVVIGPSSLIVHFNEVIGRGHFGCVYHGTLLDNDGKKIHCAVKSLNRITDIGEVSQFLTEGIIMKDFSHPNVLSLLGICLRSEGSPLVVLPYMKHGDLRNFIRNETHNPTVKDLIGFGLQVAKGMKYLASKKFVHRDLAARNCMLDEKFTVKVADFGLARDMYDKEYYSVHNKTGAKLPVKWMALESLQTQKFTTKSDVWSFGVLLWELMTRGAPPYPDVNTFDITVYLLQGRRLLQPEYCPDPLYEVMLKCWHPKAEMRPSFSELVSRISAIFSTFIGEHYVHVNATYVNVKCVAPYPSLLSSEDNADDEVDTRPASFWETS

Take `COc1cnc2c(Oc3ccc(NC(=O)c4cn(CCF)c(C)c(-c5cccs5)c4=O)cc3F)ccnc2c1` [Compound 331, 1-(2-Fluoroethyl)-N-[3-fluoro-4-[(7-methoxy-1,5-naphthyridin-4-yl)oxy]phenyl]-6-methyl-4-oxo-5-thiophen-2-ylpyridine-3-carboxamide]: the IC50 in test [1] and in test [2] was no more than 100 nM in each case.

In the case of `COc1cc2nccc(Oc3ccc(NC(=O)c4cn(CCF)c(C)c(-c5ccsc5)c4=O)cc3F)c2nc1OC` [Compound 332, N-[4-[(6,7-Dimethoxy-1,5-naphthyridin-4-yl)oxy]-3-fluorophenyl]-1-(2-fluoroethyl)-6-methyl-4-oxo-5-thiophen-3-ylpyridine-3-carboxamide], the IC50 in test [1] and in test [2] was no more than 100 nM each time.

Take `COc1cc2nccc(Oc3ccc(NC(=O)c4cn(CCF)c(C)c(-c5ccco5)c4=O)cc3F)c2nc1OC` [Compound 333, N-[4-[(6,7-Dimethoxy-1,5-naphthyridin-4-yl)oxy]-3-fluorophenyl]-1-(2-fluoroethyl)-5-(furan-2-yl)-6-methyl-4-oxopyridine-3-carboxamide]: the IC50 in test [1] and in test [2] was no more than 100 nM in each case.

With `COc1cnc2c(Oc3ccc(NC(=O)c4cn(CCF)c(C)c(-c5ccoc5)c4=O)cc3F)ccnc2c1` [Compound 334, 1-(2-Fluoroethyl)-N-[3-fluoro-4-[(7-methoxy-1,5-naphthyridin-4-yl)oxy]phenyl]-5-(furan-3-yl)-6-methyl-4-oxopyridine-3-carboxamide], the IC50 in test [1] and in test [2] was no more than 100 nM in each case.

Regarding `COc1nc2c(Oc3ccc(NC(=O)c4c(C)n(C)c(C)c(-c5ccco5)c4=O)cc3F)ccnc2cc1OCCC1CCC1` [Compound 337, N-[4-[[7-(2-Cyclobutylethoxy)-6-methoxy-1,5-naphthyridin-4-yl]oxy]-3-fluorophenyl]-5-(furan-2-yl)-1,2,6-trimethyl-4-oxopyridine-3-carboxamide], the IC50 in test [1] and in test [2] was no more than 100 nM in each case.
